Results from patent US20060241108A1, “Substituted phenoxazines and acridones as inhibitors of AKT” (St. Jude Children's Research Hospital, priority 2005, published 2006).
Read-outs that look alike come from different tables or passages of the source. Marks after values point to notes of the source that are not given here.

Legend:
[1] = target: T1, recombinant p-110 gamma enzyme (Homo sapiens, UniProt P48736); assay: PI 3-kinase assay in vitro; type: biochemical; conditions: 5 μM; phosphatidylinositol substrate, [γ32P]-ATP, TLC
T1 construct: purchased AG Scientific, San Diego, Calif
Description: PI 3-kinase assay. […] 10 μg of phosphatidylinositol (available from Sigma, St. Louis, Mo.) can then be added to each sample, and the incubation preferably continues on ice for an additional 15 minutes. ATP (final concentration 25 μM containing 30 μCi of [γ^32p]-ATP) can be added to each sample, and the reaction mixtures incubated at 37° C. for 10 minutes. Reactions can be terminated by adding 20 μl of 6 N hydrochloric acid. The sample is preferably vortexed, and lipids extracted into 300 μl of MeOH:CHCl3 (1:1) mixture. After mixing gently and spinning at 10,000×g for 5 minutes, 50 μl of the organic phase is preferably spotted onto a silica coated thin layer chromatography (TLC) plate (available from EMD, La Jolla, Calif.) and developed using a solvent system containing CHCl3:MeOH:H2O:NH4OH (60:47:11.3:2). The TLC plate can then be allowed to dry, and the bands analyzed using a Storm 860 phosphoimager (available from Amersham Biosciences, Sunnyvale, Calif.).
Lipids in such assays can be resolved by thin layer chromatography (TLC), and incorporated radiolabel quantitated using a phosphoimager.

Rh18 cells = conditions: 7.5 µM
Description: (§1) Determination of apoptosis. An ApoAlert™ Annexin V-FITC Apoptosis kit (available from Clontech, Palo Alto, Calif.) can be used to evaluate the extent of apoptosis within cell populations. Cells (Rh1: 350,000 per 75-cm^2 flask; Rh18: 800,000 per 75-cm^2 flask; or Rh30: 500,000 per 75-cm^2 flask) are preferably grown overnight in complete medium. On day 1, cells are treated with DMSO (0.1%; vehicle control) or with a test compound (e.g., a phenoxazine or acridone compound). After 4 days, the cells are trypsinized, washed with PBS, and resuspended in 200 μl of binding buffer. Cells are then incubated with 10 μl of annexin V-FITC (final concentration, 1 μg/ml) and 500 ng of propidium iodide in a final volume of 410 μl. Cells are preferably incubated at room temperature in the dark for ten minutes before flow cytometric analysis with an FACSCalibur™ Flow Cytometry System (Becton Dickinson, San Jose, Calif.).
(§2) For instance, Rh1, Rh18 and/or Rh30 cells can be grown in complete medium with 0.1% DMSO (as a negative control) or with one or more test compounds, e.g., any of the phenoxazine compounds listed in Table I, above, including but not limited to the compounds 10B, 11B, 13B, 14B or 15B. […] Cells are then harvested, and the extent of apoptosis evaluated, e.g., by an ApoAlert™ (Clontech, Palo Alto, Calif.) flow cytometric assay.

[2] = test system: mTOR (Ser2448 and Ser2481), rpS6 (Ser235/236) and p70S6 kinase (Thr389); assay: IGF-I induced phosphorylation of AKT downstream targets in Rh1 cells, Western blot; type: cell-based, human; conditions: 3.5 to 5.0 μM, 1 hour, Rh1 cells serum-free, IGF-I 10 minutes
Description: Cellular screening for inhibitors. Rh1, Rh18 and Rh30 cells can each be seeded at a density of 4×10^6/10-cm plate in serum-free medium for overnight attachment. The cells can then be exposed to 0.1% DMSO or to a test compound (for example, a phenoxazine or acridone compound) for one hour, then stimulated with Insulin-like growth factor-I (IGF-I) (10 ng/ml) for 10 minutes.
Western blot analysis. Cells are rapidly washed with ice-cold phosphate-buffered saline (PBS), placed on ice, and lysed in mammalian protein extraction reagent (M-PER; available from Pierce, Rockford, Ill.) containing one Complete™ mini protease inhibitor tablet (available from Boehringer Mannheim, Mannheim, Germany), 1 mM phenylmethylsulfonyl fluoride, 1 mM Na3VO4 and 1 mM NaF. Cellular debris is pelleted by centrifugation at 17,500×g for 10 minutes at 4° C. The protein concentration of the supernatants is measured by the bicinchoninic acid assay (e.g., using the BCA™ Protein Assay Kit, Pierce, Rockford, Ill., catalog number 23225 or 23227) using bovine serum albumin as the standard.
For the analysis of AKT, ERK-1/2, mTOR, p70S6 kinase, ribosomal protein S6 (rpS6 or S6), and glycogen synthase kinase 3 (GSK-3), equivalent amounts of protein can be separated on a 12% SDS-polyacrylamide gel (available from BioRad, Hercules, Calif.) by electrophoresis and subsequently transferred to a nitrocellulose membrane (also available from BioRad). […]

Rh1 cells [3] = conditions: 6.5 µM
Description: as §1, §2

AKT = assay: Translocation of AKT from cytoplasm to nucleus in Rh1 cells, confocal microscopy; type: cell-based, human; conditions: 5 μM, 1 hour, IGF-1 10 ng/ml 20 minutes
Description: Translocation of AKT in Rh1 cells. Rh1 cells (2×10^5 per chamber) can be grown on 2-well glass chamber slides (available from Falcon, Franklin Lakes, N.J.) in serum-free medium containing fibronectin (10 μg/ml). Preferably after twenty hours, the cells are exposed to DMSO (0.1%, vehicle control) or test compound (e.g., 5 μM of phenoxazine or acridone compound) for one hour and then stimulated with IGF-I (10 ng/ml) for 20 minutes. Cells are preferably washed twice with PBS and fixed in 4% formaldehyde for 30 minutes at room temperature. The samples are then rinsed twice with PBS and permeabilized with 1% Triton X-100 for five minutes at room temperature. After rinsing twice with PBS, the cells are incubated with an anti-AKT antibody (available from Rockland, West Chester, Pa.) (1:50 dilution) for 45 minutes at 37° C. […] After rinsing twice with PBS, the slides can be mounted in media containing TOPRO-3 (also available from Molecular Probes) and analyzed by routine confocal microscopy.
Upon activation, AKT translocates to the nucleus (see, e.g., Biggs et al. Proc. Natl. Acad. Sci. USA 1999;96:7421-7426; Brownawell et al. Mol. Cell. Biol. 2001;21:3534-3546; Brunet et al. Cell 1999;96:857-868; and Rena et al. J. Biol. Chem. 1999;274:17179-17183). […] Cellular localization of AKT may then be assessed, e.g. by confocal microscopy.

Rh30 cells = conditions: 7.5 µM
Description: as §1, §2

Rh1 cells [4] = assay: Determination of apoptosis (Annexin V-FITC/propidium iodide flow cytometry), Rh1 cells; conditions: Rh1, 6.5 μM, four days, n = 3
Description: as §1, §2

T1 sequence (P48736 whole entry, species assumed): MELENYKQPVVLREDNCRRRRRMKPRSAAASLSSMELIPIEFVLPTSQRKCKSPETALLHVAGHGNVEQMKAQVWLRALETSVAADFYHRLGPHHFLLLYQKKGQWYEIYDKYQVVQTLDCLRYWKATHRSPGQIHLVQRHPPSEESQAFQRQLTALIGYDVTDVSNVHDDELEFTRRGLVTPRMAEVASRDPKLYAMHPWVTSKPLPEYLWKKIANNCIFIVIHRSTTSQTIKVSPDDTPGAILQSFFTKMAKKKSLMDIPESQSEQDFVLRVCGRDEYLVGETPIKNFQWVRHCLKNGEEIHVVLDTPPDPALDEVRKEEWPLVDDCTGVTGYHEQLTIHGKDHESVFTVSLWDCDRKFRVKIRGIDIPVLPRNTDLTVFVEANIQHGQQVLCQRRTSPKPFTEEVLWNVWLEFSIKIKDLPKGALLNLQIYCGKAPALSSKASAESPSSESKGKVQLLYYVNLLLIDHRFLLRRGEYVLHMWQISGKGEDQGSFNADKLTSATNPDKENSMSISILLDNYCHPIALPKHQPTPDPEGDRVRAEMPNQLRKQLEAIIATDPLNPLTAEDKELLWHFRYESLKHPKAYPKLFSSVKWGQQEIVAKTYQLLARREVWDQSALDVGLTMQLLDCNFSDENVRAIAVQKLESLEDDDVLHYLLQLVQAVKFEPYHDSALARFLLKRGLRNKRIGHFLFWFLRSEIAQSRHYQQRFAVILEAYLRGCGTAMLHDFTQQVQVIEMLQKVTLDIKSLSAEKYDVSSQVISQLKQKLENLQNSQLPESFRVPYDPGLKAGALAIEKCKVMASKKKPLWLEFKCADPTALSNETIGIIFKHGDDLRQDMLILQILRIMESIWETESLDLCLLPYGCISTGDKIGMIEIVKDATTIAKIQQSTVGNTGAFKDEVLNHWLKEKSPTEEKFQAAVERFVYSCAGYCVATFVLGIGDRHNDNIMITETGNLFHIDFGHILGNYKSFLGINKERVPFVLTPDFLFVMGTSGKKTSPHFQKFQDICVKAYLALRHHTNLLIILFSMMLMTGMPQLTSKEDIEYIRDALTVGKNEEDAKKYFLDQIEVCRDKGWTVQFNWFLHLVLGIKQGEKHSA

Compound	PI 3-kinase activity [1]	Percentage of cells ± SD, Viable (Rh18 cells)	inhibition of IGF-I induced phosphorylation of mTOR, rpS6 and p70S6 kinase [2]	Percentage of cells ± SD, Viable (Rh1 cells [3])	nuclear localization of AKT (AKT)	Percentage of cells ± SD, Viable (Rh30 cells)	Percentage of cells ± SD, Viable (Rh1 cells [4])
10-[4′-[(β-hydroxyethyl)piperazino]butyl]-2-chlorophenoxazine [Compound 15B]	comparable to the untreated sample	67.00 ± 7.48%	markedly inhibited	23.33 ± 8.66^d %	block in nuclear localization occurs	11.00 ± 2.16^d %	–
CCN(CC)CCCCN1c2ccccc2Oc2ccc(Cl)cc21 [Compound 10B, 10-[4′-(N-diethylamino)butyl]-2-chlorophenoxazine]	comparable to the untreated sample	–	markedly inhibited	–	block in nuclear localization occurs	–	47.70 ± 7.90%
